The values below come from ChEMBL document CHEMBL5154930, “Design, Synthesis, and Biological Evaluations of DOT1L Peptide Mimetics Targeting the Protein-Protein Interactions between DOT1L and MLL-AF9/MLL-ENL” (J Med Chem, 2022).

Non-standard residues stand in square brackets, D forms with d. Residues, ends and D or L forms follow the SMILES beside them. *: point of attachment. X2 = c1ccc(-c2cn(CC3CCCCC3)c([C@@H]3CCCN3*)n2)cc1; Ala(cPent) = N[C@@H](CC1CCCC1)C(=O)O; Pentanoyl(4-Me) = CC(C)CCC(=O)*; Dap = NC[C@H](N)C(=O)O

One data set has as its target T1, Protein ENL (Homo sapiens, UniProt Q03111).
T1 sequence (Q03111 whole entry): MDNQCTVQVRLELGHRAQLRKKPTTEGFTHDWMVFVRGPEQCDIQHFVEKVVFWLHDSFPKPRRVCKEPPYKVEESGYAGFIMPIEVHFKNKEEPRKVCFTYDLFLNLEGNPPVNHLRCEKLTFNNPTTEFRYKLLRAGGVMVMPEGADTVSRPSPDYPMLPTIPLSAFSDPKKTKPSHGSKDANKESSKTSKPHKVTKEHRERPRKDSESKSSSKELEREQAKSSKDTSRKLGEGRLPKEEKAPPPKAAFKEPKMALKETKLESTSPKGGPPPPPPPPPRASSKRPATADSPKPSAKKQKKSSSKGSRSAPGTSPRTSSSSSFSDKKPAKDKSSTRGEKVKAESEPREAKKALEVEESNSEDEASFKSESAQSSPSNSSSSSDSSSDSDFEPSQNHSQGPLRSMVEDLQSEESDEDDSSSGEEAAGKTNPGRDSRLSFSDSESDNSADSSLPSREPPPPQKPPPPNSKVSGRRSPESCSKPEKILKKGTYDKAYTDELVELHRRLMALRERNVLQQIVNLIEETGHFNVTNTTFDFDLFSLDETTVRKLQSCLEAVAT
Nature of the data set: Binding affinity to MBP-tagged human recombinant ENL (489 to 559 residues) incubated for 40 mins by measuring fluorescence polarization by microplate reader method. On the technique in general: In fluorescence polarisation assays a small probe gives low polarisation when free and higher when bound to something large.

A short description of data set [1]: Apparent permeability across apical to basolateral side in human Caco-2 cells. The format is ADME, cell-based. Background: Caco-2 cells form a polarised layer with tight junctions and transporters.
A short description of data set [2]: Stability in human plasma assessed as compound remaining measured upto 1440 mins by HPLC analysis. The format is ADME, cell-free. Particulars: read-out: Stability.
For the next data set, the system named is MOLM-13. Description: cells. Conditions: Homo sapiens, MOLM-13, 192 h.
In a further data set the test system is KOPN-8. Description: cells. Conditions: Homo sapiens, KOPN-8, 192 h.

Description for KOPN-8: Anticancer activity against human KOPN-8 cells harbouring MLL-ENL assessed as inhibition of cell growth treated for 8 days measured by CCK-8 kit method
Description for MOLM-13: Anticancer activity against human MOLM-13 cells harbouring MLL-AF9 assessed as inhibition of cell growth treated for 8 days measured by CCK-8 kit method

For `CC(C)CCC(=O)N1CCC[C@H]1C(=O)N[C@H](C(=O)N[C@@H](CN)C(=O)N[C@@H](CC1CCCC1)C(=O)N1CCC[C@H]1c1nc(-c2ccccc2)cn1CC1CCCCC1)C(C)C` ({Pentanoyl(4-Me)}-PV[Dap][Ala(cPent)]-X2), the inhibition constant Ki on Protein ENL came out at 240 nM. For the same compound, the Papp A→B in data set [1] came out at 0.73 ×10⁻⁶ cm/s. For the same compound, the remaining at 24 h in data set [2] came out at 94%. Also, the IC50 with MOLM-13 turned out to be 3200 nM; in the data set with KOPN-8, 2210 nM.

In general, Ki refers to a dissociation constant, usually derived from enzyme kinetics or from competition with a known ligand. By Papp A→B is commonly meant the apparent permeability from the apical to the basolateral side of a cell layer. A word on the IC50: it is the midpoint of a concentration-inhibition curve.
